Results: patent US20230234936A1, “COMPOUND FOR TARGETING AND DEGRADING PROTEIN, AND PREPARATION METHOD THEREFOR AND USE THEREOF” (SHANGHAI LEADINGTAC PHARMACEUTICAL CO., LTD., priority 2020, published 2023)

How the values were obtained:
[1] = molecular target: T1, IRAK4 protein in THP-1 cells (Homo sapiens, UniProt Q9NWZ3); experiment: Degradation of IRAK4 in THP-1 cells (Western blot); type: cell-based; details: 24 hours, compound 1-3000 nM
T1 construct: endogenous in cells; host or cells: THP-1
T1 sequence (Q9NWZ3 1-460): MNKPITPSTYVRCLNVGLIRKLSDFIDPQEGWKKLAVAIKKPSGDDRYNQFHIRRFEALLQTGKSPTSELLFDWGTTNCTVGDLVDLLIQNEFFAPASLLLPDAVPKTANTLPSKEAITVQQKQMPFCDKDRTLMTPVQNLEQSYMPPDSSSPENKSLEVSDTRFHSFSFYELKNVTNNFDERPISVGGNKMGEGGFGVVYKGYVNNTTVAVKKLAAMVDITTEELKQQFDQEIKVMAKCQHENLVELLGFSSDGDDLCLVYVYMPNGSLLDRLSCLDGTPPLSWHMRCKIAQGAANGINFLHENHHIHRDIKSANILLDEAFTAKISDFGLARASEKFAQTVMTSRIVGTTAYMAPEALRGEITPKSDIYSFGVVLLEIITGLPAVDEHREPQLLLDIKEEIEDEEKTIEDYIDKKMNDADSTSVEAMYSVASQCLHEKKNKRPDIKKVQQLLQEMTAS
Method in brief: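 THP-1 cells (5×10^5/well) treated 24 h with compound at 1–3000 nM final. IRAK4 in lysates quantified by Western blot, normalized to internal reference and compared with control to give degradation rate; DC50 and Dmax from nonlinear fit of log concentration.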

IRAK4 kinase = molecular target: T2, IRAK4 kinase (Homo sapiens, UniProt Q9NWZ3); experiment: IRAK4 kinase activity test (KinEASE-STK S1 HTRF kit); type: biochemical; details: 2.5 nM kinase, 1 μM biotinylated polypeptide substrate, 7 μM ATP, 37° C. 120 min
T2 sequence (Q9NWZ3 1-460): T1 sequence (Q9NWZ3 1-460)
Method in brief: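 Compound in DMSO, serially diluted to 10000–0.038 nM final, incubated with 2.5 nM kinase, 1 μM biotinylated peptide substrate and 7 μM ATP at 37° C for 120 min. Eu-anti-phospho-Ser/Thr antibody plus streptavidin-XL665 stopped the reaction (1 h RT). HTRF 665/620 nm ratio gave % inhibition versus control; IC50 from nonlinear log-concentration fit.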

Compound | DC50 [1] [nM] | Dmax [1] [%] | IC50 (IRAK4 kinase) [nM]
CC(C)(O)c1cc2nn(C3CCN(CC4CCC5(CC4)CCN(C(=O)c4ccc(F)c(N6CCC(=O)NC6=O)c4)CC5)CC3)cc2cc1NC(=O)c1cccc(C(F)(F)F)n1 [Example 45, N-(2-(1-((3-(3-(2,4-dioxotetrahydro-pyrimidin-1 (2H)-yl)-4-fluoro-benzoyl)-3-azaspiro[5.5]undec-9-yl)methyl)piperidin-4-yl)-6-(2-hydroxyprop-2-yl)-2H-indazol-5-yl)-6-(trifluoro-methyl) pyridinecarbox-amide] | 1.9 | 98.2 | 23.5
COc1cc2nn(C3CCN(CCC4CCC5(CC4)CCN(C(=O)c4ccc(F)c(N6CCC(=O)NC6=O)c4)CC5)CC3)cc2cc1NC(=O)c1cccc(C(F)(F)F)n1 [Example 46, N-(2-(1-(2-(3-(3-(2,4-dioxotetrahydro-pyrimidin-1 (2H)-yl)-4-fluoro-benzoyl)-3-azaspiro[5.5]undec-9-yl)ethyl)piperidin-4-yl)-6-methoxy-2H-indazol-5-yl)-6-(tri-fluoromethyl) pyridinecarbox-amide] | 4 | 97.8 | 43.1
COc1cc2nn(C3CCN(CCC4CCC5(CC4)CCN(C(=O)c4cccc(N6CCC(=O)NC6=O)c4)CC5)CC3)cc2cc1NC(=O)c1cccc(C(F)(F)F)n1 [Example 47, N-(2-(1-(2-(3-(3-(2,4-dioxotetrahydro-pyrimidin-1 (2H)-yl)benzoyl)-3-azaspiro[5.5]undec-9-yl)ethyl)piperidin-4-yl)-6-methoxy-2H-in-dazol-5-yl)-6-(tri-fluoromethyl) pyridinecarbox-amide] | 5.4 | 98.3 | 34.2
COc1cc2nn(C3CCN(CCC4CCC5(CC4)CCN(C(=O)c4ccc(Cl)c(N6CCC(=O)NC6=O)c4)CC5)CC3)cc2cc1NC(=O)c1cccc(C(F)(F)F)n1 [Example 48, N-(2-(1-(2-(3-(4-chloro-3-(2,4-dioxotetrahydro-pyrimidin-1 (2H)-yl)benzoyl)-3-azaspiro[5.5]undec-9-yl)ethyl)piperidin-4-yl)-6-methoxy-2H-in-dazol-5-yl)-6-(tri-fluoromethyl) pyridinecarbox-amide] | 6 | 98 | 61.8
COc1cc2nn([C@H]3CC[C@H](CN4CCC5(CC4)CCN(C(=O)c4ccc(Cl)c(N6CCC(=O)NC6=O)c4)CC5)CC3)cc2cc1NC(=O)c1cccc(C(F)(F)F)n1 [Example 50, N-(2-((1r,4r)-4-((9-(4-chloro-3-(2,4-dioxotetrahydropyrim-idin-1 (2H)-yl)benzoyl)-3,9-diazaspiro[5.5]undec-3-yl)methyl)cyclohexyl)-6-methoxy-2H-inda-zol-5-yl)-6-(tri-fluoromethyl) pyridinecarbox-amide] | 5.6 | 97 | 7.2
COc1cc2nn([C@H]3CC[C@H](CN(C)CC4CCN(C(=O)c5ccc(Cl)c(N6CCC(=O)NC6=O)c5)CC4)CC3)cc2cc1NC(=O)c1cccc(C(F)(F)F)n1 [Example 51, N-(2-((1r,4r)-4-((((1-(4-chloro-3-(2,4-dioxotetrahydro-pyrimidin-1 (2H)-yl)benzoyl)piperdin-4-yl)methyl) (methyl)amino)methyl)cyclohexyl)-6-methoxy-2H-inda-zol-5-yl)-6-(tri-fluoromethyl) pyridinecarbox-amide] | 27.5 | 95.4 | 11.3
COc1cc2nn([C@H]3CC[C@H](N4CCC5(CCN(C(=O)c6ccc(Cl)c(N7CCC(=O)NC7=O)c6)CC5)CC4)CC3)cc2cc1NC(=O)c1cccc(C(F)(F)F)n1 [Example 58, N-(2-((1r,4r)-4-(9-(4-chloro-3-(2,4-dioxotetrahydro-pyrimidin-1 (2H)-yl)benzoyl)-3,9-diazaspiro[5.5]undec-3-yl)cyclohexyl)-6-methoxy-2H-inda-zol-5-yl)-6-(triflu-oromethyl) pyridinecarbox-amide] | 7.6 | 92.1 | 4.3
CCN(C1CCC2(CC1)CCN(C(=O)c1ccc(Cl)c(N3CCC(=O)NC3=O)c1)CC2)[C@H]1CC[C@H](n2cc3cc(NC(=O)c4cccc(C(F)(F)F)n4)c(OC)cc3n2)CC1 [Example 60] | 5.1 | 93.2 | 6.43
CN(CC1CCN(C(=O)c2ccc(Cl)c(N3CCC(=O)NC3=O)c2)CC1)C[C@H]1CC[C@H](n2cc3cc(NC(=O)c4cccc(C(F)(F)F)n4)c(C(C)(C)O)cc3n2)CC1 [Example 62] | 5.6 | 92.3 | 6.9
COc1cc2nn([C@H]3CC[C@H](COCCC4CCN(C(=O)c5ccc(Cl)c(N6CCC(=O)NC6=O)c5)CC4)CC3)cc2cc1NC(=O)c1cccc(C(F)(F)F)n1 [Example 64, N-(2-((1r,4r)-4-((2-(1-(4-chloro-3-(2,4-dioxotetrahydro-pyrimidin-1 (2H)-yl)benzoyl)piperidin-4-yl)ethoxy)methyl)cyclohexyl)-6-methoxy-2H-indazol-5-yl)-6-(trifluoro-methyl) pyridinecarbox-amide] | 13.9 | 95.6 | 48
COc1cc2nn([C@H]3CC[C@H](CN(C)C4CCN(C5CCN(C(=O)c6ccc(Cl)c(N7CCC(=O)NC7=O)c6)CC5)CC4)CC3)cc2cc1NC(=O)c1cccc(C(F)(F)F)n1 [Example 65, N-(2-((1r,4r)-4-(((1′-(4-chloro-3-(2,4-dioxotetrahydro-pyrimidin-1 (2H)-yl)benzoyl)-[1,4′-bi-piperidin]-4-yl) (methyl)amino)methyl)cyclohexyl)-6-methoxy-2H-indazol-5-yl)-6-(trifluoro-methyl) pyridinecarbox-amide] | 13.4 | 98.3 | 1.6
O=C1CCN(c2cc(C(=O)N3CCC4(CCC(CN5CCC(n6cc7cc(NC(=O)c8cccc(C(F)(F)F)n8)c(OC(F)F)cc7n6)CC5)CC4)CC3)ccc2Cl)C(=O)N1 [Example 66] | 16.1 | 95.3 | 21.4
COc1cc2nn([C@H]3CC[C@H](CN(C)CCCCC4CCN(C(=O)c5ccc(Cl)c(N6CCC(=O)NC6=O)c5)CC4)CC3)cc2cc1NC(=O)c1cccc(C(F)(F)F)n1 [Example 67, N-(2-((1r,4r)-4-(((4-(1-(4-chloro-3-(2,4-dioxotetrahydro-pyrimidin-1 (2H)-yl)benzoyl)piperidin-4-yl)butyl) (methyl)amino)methyl)cyclohexyl)-6-methoxy-2H-indazol-5-yl)-6-(trifluoro-methyl) pyridinecarbox-amide] | 11.5 | 99.2 | 5.13
CC(C)(C)C(=O)OCN1C(=O)CCN(c2cc(C(=O)N3CCC4(CCC(CCN5CCC(n6cc7cc(NC(=O)c8cccc(C(F)(F)F)n8)c(C(C)(C)O)cc7n6)CC5)CC4)CC3)ccc2Cl)C1=O [Example 71, methyl (3-(2-chloro-5-(9-(2-(4-(6-(2-hydroxyprop-2-yl)-5-(6-(trifluoromethyl)pyridinecarboxamido)-2H-indazol-2-yl)piperidin-1-yl)ethyl)-3-azaspiro[5.5]undecyl-3-carbonyl)phenyl)-2,6-dioxotetrahydropyrimidin-1 (2H)-yl) pivalate] | 3.7 | 97 | 114
